Laboratory results from PMC4520450, “Procyanidins Negatively Affect the Activity of the Phosphatases of Regenerating Liver” (PLoS ONE, 2015).

How the values were obtained:
Caco-2 cell model = test system: Caco-2 cell model; parameters: method as in PMID 23885956; conditions: within 24h; cited from earlier work
VHR = target: T1, VHR (Homo sapiens, UniProt P51452); assay: DiFMUP assay for PTP1B, TCPTP, VHR; format: biochemical; conditions: 12.5 μM, 30 min incubation, 20 μM DiFMUP, 50 nM enzyme
T1 construct: made in house
Protocol: (§1) As an extension of our studies we included PTP1B, VHR and TCPTB as examples for phosphotyrosine specific phosphatases in our activity studies, because tea extracts were reported to inhibit PTP1B [43]. For comparison with PRL-3, these proteins were used in the same concentration (50 nM) as PRL-3 and DiFMUP was also used as a substrate in 20 μM concentration. The enzymes were incubated with three different concentrations of procyanidin C2 (9) for 30 min before the measurement.
(§2) Fig 3 Effect of procyanidin C2 (9) on the phosphatase activity of VHR, PTP1B and TCPTP using DiFMUP as a substrate. Proteins were incubated with compound 9 for 30 min., phosphatase activity measurements were performed using 20 μM DiFMUP. Phosphatase activity in the absence of compound 9 was set as 100%. Data represent means ± standard errors of the mean (n = 3).
(§3) DiFMUP assay for PTP1B, TCPTP, VHR: In a final reaction volume of 100 μL the PTPs (50 nM final concentration) were incubated with […] of procyanidin C2 (9) for 30 minutes at 25°C. The buffer conditions were pH 7.2, 4-/2-Hydroxyethyl)-1-piperazineethanesulfonic acid (HEPES) 25 mM, EDTA 2.5 mM, DTT 2.0 mM, NaCl 124.4 mM. After the incubation time 20 μL DiFMUP was added to reach a final concentration of 20 μM. On a Tecan safire2 (Tecan, Salzburg, Austria) plate reader dephosphorylation of the substrate to its fluorescent product was monitored by following the emission at […] for 10 minutes. All measurements were done in triplicates, and the experiments were repeated at least three times. The slopes of the initial phases were obtained by linear regression of the data points. The normalized reaction rates were plotted versus the log of the inhibitor concentrations and the IC50 values were obtained by fitting the curves using the one site competition model of GraphPad Prism (GraphPad Software, Version 5). Due to the high water solubility of 9 DMSO was not required and measurements were done in assay buffer only.

PTP1B = target: T2, PTP1B (Homo sapiens, UniProt P18031); assay: DiFMUP assay for PTP1B, TCPTP, VHR; format: biochemical; conditions: 12.5 μM, 30 min incubation, 20 μM DiFMUP, 50 nM enzyme
T2 construct: made in house
T2 sequence (P18031 1-435): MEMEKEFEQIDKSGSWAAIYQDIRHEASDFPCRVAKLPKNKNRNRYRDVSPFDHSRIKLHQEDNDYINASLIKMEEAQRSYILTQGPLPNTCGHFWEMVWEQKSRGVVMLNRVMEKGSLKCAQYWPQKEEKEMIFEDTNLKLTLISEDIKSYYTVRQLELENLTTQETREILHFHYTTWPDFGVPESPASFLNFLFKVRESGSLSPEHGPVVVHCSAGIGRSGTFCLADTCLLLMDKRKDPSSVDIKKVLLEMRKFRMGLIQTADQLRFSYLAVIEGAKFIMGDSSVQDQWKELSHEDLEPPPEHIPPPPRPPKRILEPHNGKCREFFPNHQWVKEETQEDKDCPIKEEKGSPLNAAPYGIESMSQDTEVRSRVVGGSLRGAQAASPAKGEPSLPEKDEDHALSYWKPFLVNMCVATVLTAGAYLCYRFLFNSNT
Protocol: as §1, §2, §3

[1] = test system: HEK293 empty vector cell line; assay: Transwell cell migration assay; format: cell-based; conditions: 16 h, empty vector cells
Protocol: To study if procyanidin C2 is able to inhibit PRL-1 and PRL-3 in cells, HEK293 cells were treated in a wound-healing assay (see the experimental procedures). […] As a control the empty vector cell line was again utilized. […] The migration speed was for all cell lines similar when treated with 50 μM of 9. To further corroborate these findings we performed additionally a transwell assay as an alternative way to study cell migration.
Fig 6 Wound healing abilities of PRL-1 or PRL-3 overexpressing or empty vector control HEK293 cell lines were analyzed in the presence of compound 9 or medium only. Cells were seeded at a concentration of 800,000 cells per insert and procyanidin C2 (9) was added at a concentration of 25 and 50 μM. A) Pictures of the wound gaps were taken at 0 h and 7 h for both conditions (with and without treatment). B) Quantification of the wound healing experiment. Speed of migration is shown for combined data from different replicates, as mean ± SD (n = 38–88). Two-sided t-tests with Welsh correction were performed for p < 0.05. ns = not significant;***: < 0.001; **: < 0.01; *: < 0.05. C) Effect of polyphenolic compounds in a transwell assay on the cell migration of HEK293 empty vector and PRL-3 overexpressing cell lines. Cells were seeded at a concentration of 100,000 cells per insert and procyanidin C2 (9) was added at a final concentration of 25 and 50 μM. Migration was allowed for 16 h before harvesting and staining with calcein AM for fluorescent readout. Mean ± SD (n = 60–72) is shown for combined data from different replicates. Two-sided t-tests with Welsh correction were performed for p < 0.05. ns = not significant. D) Quantification of wound healing experiment including blocking PRL-1 and PRL-3 with analog 3. Speed of migration is shown for combined data from different replicates, as mean ± SD (n = 63–82). Two-sided t-tests with Welsh correction were performed for p < 0.05.
HEK293 empty vector, PRL-1 and PRL-3 overexpressing cells were kept in selection medium (DMEM medium without Phenol red, supplemented with 10% FBS, 1% glutamine and 0.2% hygromycin and blasticidin) for one week until full confluency. Then, 0.1% tetracycline (1 mg/ml stock solution in ethanol) was added for induction of PRL-1 and PRL-3 expression in HEK293 PRL-1 and HEK PRL-3 wt 24 h prior plating on transwell inserts. For comparison, HEK293 empty vector was also treated with tetracycline. After 24 h, the medium was removed, cells were washed with PBS and starvation medium supplemented with 0.1% tetracycline was added. […] Then, 3x100 μL were taken from each well and transferred to a black assay plates and the relative concentration of the fluorescent product formed in the cells was determined by following the emission at 520 nm with excitation at 452 nm. […]

T1 sequence (P51452 whole entry, species assumed): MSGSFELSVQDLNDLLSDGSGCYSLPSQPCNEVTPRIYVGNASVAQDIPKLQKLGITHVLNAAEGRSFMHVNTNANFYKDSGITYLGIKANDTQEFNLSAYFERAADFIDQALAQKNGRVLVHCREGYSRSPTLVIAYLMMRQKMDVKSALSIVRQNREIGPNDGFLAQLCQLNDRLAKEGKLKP

Structure (SMILES) | permeation (Caco-2 cell model) | VHR phosphatase activity compared to the control (VHR) | PTP1B phosphatase activity compared to the control (PTP1B) | cell migration, transwell ([1]; 25 μM) | cell migration, transwell ([1]; 50 μM)
Oc1cc(O)c2c(c1)O[C@H](c1ccc(O)c(O)c1)[C@@H](O)[C@@H]2c1c(O)cc(O)c2c1O[C@H](c1ccc(O)c(O)c1)[C@@H](O)C2 [Procyanidin B3 (8), Procyanidin B3] | up to 0.2% |  |  |  | 
Oc1cc(O)c2c(c1)O[C@H](c1ccc(O)c(O)c1)[C@@H](O)[C@@H]2c1c(O)cc(O)c2c1O[C@H](c1ccc(O)c(O)c1)[C@@H](O)[C@@H]2c1c(O)cc(O)c2c1O[C@H](c1ccc(O)c(O)c1)[C@@H](O)C2 [Procyanidin C2 (9), Procyanidin C2] |  | 75–85% | 75–85% | did not lead to a significant change in cell migration | significant increase in cell migration
